# Test results: US10695406B2, “Modulation of cellular stress using a B-cell oxidative and/or endoplasmic reticulum stress inhibitor and a targeting agent” (THE UNIVERSITY OF QUEENSLAND, priority 2014, dated 2020)
# Assays:
# 3T3 adipocytes = test: 6-NBDG glucose uptake by 3T3 adipocytes with insulin secreted by islets; assay type: cell-based; conditions: insulin secreted by islets from HFD mice treated with 100 ng/g
# Method: 3T3 cells were differentiated into adipocytes as previously described, and all experiments were carried out on day 8 post differentiation. 1×10^4 cells were seeded in a black 96-well plate and cultured in serum free 2.8 mM glucose media prior to the addition of insulin. Cells were treated for 1 h with 2 ng/mL recombinant insulin or total insulin from islet secretions at 37° C. as described in figure legends. Subsequently, cells were incubated with 6-(N-(7-nitrobenx-2-oxa-1,3-diazol-4-yl)amino)-6-deoxyglucose (6-NBDG) (MOLECULAR PROBES) for 20 min before cells were washed with PBS and glucose uptake was determined using a POLARstar Omega plate reader.
# [1] = Clearance of IL-22 and IL-22 fusion proteins from serum; assay type: in vivo, C57BL/6 mice; conditions: after administration to mice
# Method: Targeting to IL-22 to pancreas: Non-obese male C57BL/6 at 6-8 weeks of age. Each IL-22-GLP-1R ligand fusion protein or hIL-22 was administered i.p. at 256 ng/g of IL-22 and the molar equivalents for the individual fusion proteins (n=3 per regimen). IL-22-ScaB1 was administered at […]. Control mice received a PBS control i.p. injection only.
# Serum concentrations of IL-22 and the IL-22-GLP-1R ligand fusion proteins were determined using a human IL-22 double-determinant ELISA (Biolegend; 434505) against a standard curve for the individual fusion proteins.
# human pancreatic islets = test: Oxidative stress (ROS, NO) in cultured human pancreatic islets; assay type: cell-based; conditions: 50 ng/mL, 30 min prior exposure, 2 hours culture
# Method: Human islets were recovered from organ donors and placed into overnight culture in DMEM with 2.8 mM glucose and 10% FCS. Islets were then washed and transferred into serum free DMEM for 6 h prior to experiments to assess induction of oxidative stress. Islets were then cultured for 2-24 hours in the presence of 50 ng/mL of IFNγ, IL-1β, IL-23 or IL-24, or the free fatty acid palmitate at 0.5 mM, with or without exposure to 50 ng/mL IL-22 beginning 30 min prior to the introduction of the stress inducing cytokines or lipids. To test whether endogenous IL-22 affects human islet physiology the islets were treated for 2-24 hours with an anti-IL-22R1 (receptor) antibody at 10 μg/mL. ROS and nitrite were measured using the DCFDA and Greiss assays as described above for murine islets, and quantitative RT-PCR used to assess gene expression.
# murine islets = test: Murine islets ex vivo: ER stress, gene expression, insulin and proinsulin secretion; assay type: cell-based, mice
# Method: Healthy islets were cultured with 10 μg/mL tunicamycin or 5 μM thapsigargin±IL-22 for 6 hours. Alternatively the islets were cultured in the presence of ER stress-inducing cytokines±IL-22 for 24 hours. The cultures were then cultured consecutively for 30 minutes in 2.8 mM glucose, 20 mM glucose, or a combination of 20 mM glucose and 100 nM GLP-1.
# All mice were housed in sterilized, filter-topped cages in a conventional clean facility. Six to eight week old C57BL/6 male mice were fed ad libitum on a high fat diet containing 46% of available energy as saturated fat, 34% carbohydrate, 20% protein (Speciality feeds, SF04-027). Or on normal chow containing less than 10% saturated fat (GOLDMIX, 126575). Cages of mice were randomly allocated to the experimental groups by random draw. Investigators were not blinded to treatment by there were no subjective assessments made.
# Total insulin and proinsulin were measured in supernatant from islet cultures or in serum from mice using commercially obtained ELISA kits from MILLIPORE and MERCODIA, respectively. The molar insulin concentration was determined by subtracting the molar proinsulin concentration from molar total insulin, and then the serum proinsulin:insulin ratio was calculated.
# MIN6N8 cells = test: Oxidative stress gene expression (RT2 Profiler PCR array, qRT-PCR) in MIN6N8 cells; assay type: cell-based, murine; conditions: non-stressed β-cells, 50 ng/mL
# Method: Tissue samples were snap-frozen, and homogenized in TRIZOL using FASTPREP (MP BIOMEDICAL). RNA was isolated using High Pure RNA isolation kit (ROCHE), followed by cDNA synthesis using iScript (BIORAD) containing oligo(dT) and random hexamers. QPCR SYBR Green (INVITROGEN) was used for quantitative PCR using a HT7900 (ABI SYSTEMS). RoX was used as a normalization reference. Results were analyzed using SDS software (version 2.3) (ABI SYSTEMS). Primer efficiencies were determined using cDNA dilutions and primer dilutions for the genes of interest. All the data was normalized against the housekeeping gene, Gapdh, and expressed as a fold difference to the mean of relevant control samples.
# cDNA from MIN6N8 cells treated with DMSO or 50 ng/mL IL-22 was compared using the oxidative stress RT^2 Profiler PCR Array (QIAGEN, PAMM-065Z). Data were analyzed using RT^2 Profiler PCR Array data analysis software.
# Experiments to assess ER and/or oxidative stress, and methods of qRT-PCT and/or quantifying gene expression were performed as described for Example 1. Xbp1 splicing is assessed by qRT-PCR, with normalization versus Gapdh, and expression presented as fold of vehicle-treated control cells.
# [2] = healthy islets, co-treatment with ER stress agents
substance,measurement,setting,value
IL-22: interleukin-22; recombinant murine IL-22 (R&D SYSTEMS) in the mouse experiments,reduction in adipocyte 6-NBDG uptake vs insulin from islets of normal chow fed mice,3T3 adipocytes,11%
same,time to almost complete clearance from serum,[1],≤ 60 min
same,"production of ROS and NO induced by IFN-γ, IL-1β, IL-23, IL-24 and palmitate",human pancreatic islets,protected human islets from the production of ROS and NO
same,MIP2α mRNA,murine islets; HFDIO islets cultured 24 h in 2.8 mM glucose ± 50 ng/mL IL-22,reduced substantially
same,"acute islet ER stress (Xbp1-splicing, Hspa5 mRNA)",murine islets; [2],suppresses the acute islet oxidative stress-driven ER stress
same,glucose and glucose plus GLP-1 stimulated insulin secretion,murine islets; [2],restores appropriate glucose and glucose plus GLP-1 stimulated insulin secretion
same,proinsulin secretion,murine islets; islets from HFDIO mice,proinsulin secretion ceased
same,insulin hyper-secretion (GSIS),"murine islets; islets from HFDIO mice, after culture",returned to levels in non-obese islets
same,"ER stress, antioxidant gene expression and Nos2","murine islets; islets from HFDIO mice, culture 24 hours","reduced ER stress, increased antioxidant gene expression and decreased Nos2"
same,"expression of antioxidant genes Gpx5, Prdx5, Sod2 (also Ptgs1, Ptgs2, Cyba)",MIN6N8 cells,upregulated the antioxidant genes
same,"expression of oxidative stress inducing genes Nos2, Hsp90ab1, Fth1",MIN6N8 cells,down-regulates three key oxidative stress inducing genes
